Columns and labels:
Assay type in all cases: in vivo
exercising horses [1] = experiment: Simulated race test (SRT) on high-speed treadmill
Excerpt: The purpose of this study was to determine the effects of intravenous administration of E-4021 on cardiorespiratory variables in exercising horses to facilitate the selection of a product dose for the control of hemorrhage associated with Exercise Induced Pulmonary Hemorrhage (EIPH). The formulation given was the propylene glycol formulation of Table 1.
Animals: The Rutgers University Institutional Animal Care and Facilities Committee approved all methods and procedures used in this experiment. Eight mature unfit Standardbred horses, 4 geldings and 4 mares were used in this study. The horses were healthy and acceptable for the study as determined by the study veterinarian. All horses underwent a physical examination to establish suitability for inclusion within the study. This included a physical examination and body weights. All of the horses were dewormed and vaccinated per standard veterinary practice. Animals were fed a maintenance ration of alfalfa/grass hay ad libitum and concentrate as needed. Water and mineral blocks were provided ad libitum. The horses were housed individually in 3×3 m stalls between 1600 to 0700 hours. They then performed their daily exercise followed by turnout in groups of 4 in 2 acres dry lot paddocks for ˜7 hrs/day.
General Study Design: There were four phases in this study detailed below. The horses performed conditioning exercise 4 d/week in a motorized equine exercise machine (Equi-cizer, Calgary, Canada) and heavy exercise 1 d/week on a high-speed treadmill (Sato I, Lexington Ky.) during Phase I. Heavy exercise prepared the horses for the later exercise tests performed during Phase Ib, Phase II, and Phase III of the experiment. The exercise tests were performed in the place of the heavy exercise training during those later three periods.
Phase II: This was the first part of the main study with test-article dosing of the horses (Weeks ≥12). This part of the experiment was conducted using a randomized semi-crossover design with each horse undergoing a control round within the first two weeks of the phase. Horses were randomly assigned to one of five treatments (CON; 50-45; 100-45; 50-90; 100-90). Control (CON) where no drug was administered; 50-45 where they were tested 45 minutes after receiving a dose of 50 mg; 100-45 where they were tested 45 minutes after receiving 100 mg of the test-article; 50-90 where they were tested 90 minutes after receiving a 50 mg dose; and 100-90 where they were tested 90 minutes after receiving a 100 mg dose. For this phase, the horses ran a simulated race test (SRT) every week on the heavy exercise days. Group A (n=4) horses ran their tests on Thursdays (mornings) and Group B (n=4) horses ran their tests on Fridays (mornings). All horses continued with light and moderate exercise as indicated for the other study days.
Phase III: This was the second part of the main study. This part of the experiment was conducted using a randomized crossover design where horses were initially assigned to one of four treatments (CON-B; 100-90B; 150-90; 200-90). Control (CON-B) where the horses received no drug; 100-90B where they were tested 90 minutes after receiving a 100 mg dose; 150-90 where they were tested 90 minutes after receiving a 150 mg dose; and 200-90 where they were tested 90 minutes after receiving a 200 mg dose. As with the other treatment phase the horses ran a weekly simulated race test (SRT) on the heavy exercise days. Group A (n=4) horses ran their tests on Thursdays (mornings) and Group B (n=4) horses ran their tests on Fridays (mornings).
Simulated Race Test (SRT): During the SRT, each horse ran at a speed calculated to correspond to 110% of the speed required to produce maximal oxygen uptake as measured during the GXTs performed during Phase Ib. […] Hemodynamic measurements were recorded, and blood samples were obtained to correspond with the end of the warm-up, at 1 minute and 2 minutes of the high-speed run, and at the end of the recovery period. […]

exercising horses [2] = experiment: Simulated race test (SRT) on high-speed treadmill; remark: listed apart in the source
horses = experiment: Target Animal Safety (TAS) study / toxicity of formulations in horses; details: E-4021 containing meglumine, compared to E-4021 containing propylene glycol
Excerpt: The drug product vehicle contains about 35-45 wt % alcohol, 46 wt % propylene glycol and 10 wt % WFI. […] Test doses (in horses) with the vehicle confirmed that the dose toxicity was due to the vehicle. More specifically, propylene glycol was believed to be the cause of toxicity.

[3] = 100 mg (15005, meglumine) 90 min prior to SRT
[4] = 100 mg (16006, meglumine), 90 min., 4 hrs., 24 hrs. and 48 hrs. post-injection

sodium 1-[6-chloro-4-(3,4-methylenedioxybenzyl)-aminoquinazolin-2-yl]piperidine-4-carboxylate sesquihydrate [E-4021]
Attenuation of increased exercise-related pulmonary vascular pressures (exercising horses [1]; 100 mg (approximately 500 kg horse), 90 minutes prior to intense exercise): greatest attenuation
Lower PA pressure after 2 min intense exercise (exercising horses [1]; 100 mg dose given at 90 min, Phase II and III): ~30 mm Hg
Magnitude of PA pressure, 100 mg vs. 150 mg vs. 200 mg trials (exercising horses [1]; 90 min before exercise, P>0.05, sesquihydrate): no differences
Lower PAP (exercising horses [1]; Example 8, 100 mg at 90 minutes before exercise, propylene glycol formulation): ~30 mmHg
Mean pulmonary artery pressures compared to control (exercising horses [1]; Phase III, 100, 150, 200 mg 90 min before, at 2 minutes of high intensity exercise, P<0.05): lower
Markers of aerobic and anaerobic performance (exercising horses [1]; SRT, propylene glycol formulation): did not alter
Effect on plasma lactate concentration (exercising horses [1]; SRTs, P>0.05): no effect
Effect on plasma calcium concentration (exercising horses [1]; during the SRTs): no effect
Effect on plasma glucose concentration (exercising horses [1]; during the SRTs): significant effect
Oxygen uptake compared to control (exercising horses [2]; [3]): not significantly different
PAsO2 compared to control (exercising horses [2]; [3]): not significantly different
Plasma lactate compared to control (exercising horses [2]; [3]): not significantly different
Duration of pulmonary artery pressure reduction effect (exercising horses [2]; 100 mg (16006, containing meglumine), post-injection for SRT): at least 24 hours
Oxygen uptake compared to control (exercising horses [2]; [4]): not significantly different
PAsO2 compared to control (exercising horses [2]; [4]): not significantly different
Plasma lactate compared to control (exercising horses [2]; [4]): not significantly different
PA pressure during exercise, comparison of doses and times (exercising horses [2]; 100 mg dose given 90 minutes prior to exercise, propylene glycol formulation, P<0.05): lowest PA pressure
Pulmonary artery pressures during intense exercise (exercising horses [2]; IV, propylene glycol formulation of Table 1, Phase II and III, most apparent at 2-minute point of high intensity run): substantially and significantly lower
Effect on VO2 (exercising horses [2]; SRTs in Phase II and Phase III): no effect
Pulmonary artery pressure after exercise at 48 hours (exercising horses [2]; about 100 mg E-4021 containing meglumine (FIG. 21)): lower than the control
Pulmonary artery pressure compared to control (exercising horses [2]; single dose 100 mg (15005, meglumine formulation of Table 3) 90 minutes prior to SRT): reduces
Renal toxicity or blood in the urine (horses): did not have renal toxicity or blood in the urine

Reference: US20220387433A1, “TYPE V PHOSPHODIESTERASE INHIBITOR COMPOSITIONS, METHODS OF MAKING THEM AND METHODS OF USING THEM IN PREVENTING OR TREATING ELEVATED PULMONARY VASCULAR PRESSURE OR PULMONARY HEMORRHAGES” (American Regent, Inc., priority 2019, published 2022)
